Results as given in ChEMBL document CHEMBL1201862, “PubChem BioAssay data set” (2004).
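Dose response: 5 concentrations. Exposure: 48 h. Format: 96-well plates. Endpoint: linear interpolation; highest concentration if not reached. At the GI50, growth is halved.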 The source made the active and inactive calls. Rule as the data show it: active = GI50 up to about 1.1 µM and inactive = higher.

Assays:
Assay in all cases: NCI-60 cell line screen, 48 h
DLD-1 = system: DLD-1
DMS-114 = system: DMS-114
DMS-273 = system: DMS-273
HOP-18 = system: HOP-18
KM-20L2 = system: KM-20L2
LXFL 529 = system: LXFL 529
SNB-78 = system: SNB-78
XF498 = system: XF498
RXF 631 = system: RXF 631

| Compound | GI50 (DLD-1) | GI50 (DMS-114) | GI50 (DMS-273) | GI50 (HOP-18) | GI50 (KM-20L2) | GI50 (LXFL 529) | GI50 (SNB-78) | GI50 (XF498) | GI50 (RXF 631) |
| --- | --- | --- | --- | --- | --- | --- | --- | --- | --- |
| OC(c1ccccc1)(c1ccccc1)c1ccncc1 | > 100 µM (inactive) | > 100 µM (inactive) | > 100 µM (inactive) | > 100 µM (inactive) | > 100 µM (inactive) | > 100 µM (inactive) | > 100 µM (inactive) | > 100 µM (inactive) | – |
| O=[N+]([O-])c1cc([N+](=O)[O-])c(/C=C/c2ccc(Cl)c(Cl)c2)cc1/C=C/c1ccc(Cl)c(Cl)c1 | – | 24.5 µM (inactive) | 28.4 µM (inactive) | – | 31 µM (inactive) | 23.6 µM (inactive) | 47.4 µM (inactive) | – | – |
| COC(=O)c1csnn1 | – | > 100 µM (inactive) | > 100 µM (inactive) | – | > 100 µM (inactive) | > 100 µM (inactive) | – | > 100 µM (inactive) | – |
| COc1ccc(CC2c3c(cc(OC)c(OC)c3OC)CCN2C)cc1OC (configuration not stated) | > 100 µM (inactive) | – | – | 51.2 µM (inactive) | > 100 µM (inactive) | > 100 µM (inactive) | 60 µM (inactive) | > 100 µM (inactive) | – |
| CC(=O)NC(CCCNC(=O)NCCCl)C(=O)NCc1ccccc1 (configuration not stated) | – | > 100 µM (inactive) | > 100 µM (inactive) | > 100 µM (inactive) | > 100 µM (inactive) | > 100 µM (inactive) | – | – | > 100 µM (inactive) |
| CN1C/C(=C\C=C\c2ccccc2)C(=O)/C(=C/C=C/c2ccccc2)C1 | > 100 µM (inactive) | > 100 µM (inactive) | > 100 µM (inactive) | – | > 100 µM (inactive) | 78.7 µM (inactive) | > 100 µM (inactive) | > 100 µM (inactive) | > 100 µM (inactive) |
| C/C(=N\NC(C)(C)C)c1sc(-c2nc(C)c(/C(C)=N/NC(C)(C)C)s2)nc1C | > 100 µM (inactive) | > 100 µM (inactive) | > 100 µM (inactive) | > 100 µM (inactive) | > 100 µM (inactive) | > 100 µM (inactive) | > 100 µM (inactive) | – | > 100 µM (inactive) |
| CC1=C(C(=O)CC(=O)C(=O)Nc2cc(C)ccc2C)Sc2ccccc2N1 | 92.3 µM (inactive) | > 100 µM (inactive) | – | > 100 µM (inactive) | – | > 100 µM (inactive) | > 100 µM (inactive) | > 100 µM (inactive) | > 100 µM (inactive) |
| CCOP(=O)(OCC)/C(C#N)=C/c1ccc[nH]1 | > 100 µM (inactive) | > 100 µM (inactive) | > 100 µM (inactive) | > 100 µM (inactive) | > 100 µM (inactive) | > 100 µM (inactive) | > 100 µM (inactive) | – | – |
| Cc1ccc(SC2C(C)(C)N(C(C)C)P2(=O)N(C(C)C)C(C)C)cc1 (configuration not stated) | – | – | 13.4 µM (inactive) | > 100 µM (inactive) | 34 µM (inactive) | 21.3 µM (inactive) | > 68.5 µM (inactive) | – | – |
| CN(c1ccccc1)C1C(=O)N(c2ccccc2)C1/C=C/c1ccccc1 (configuration not stated) | > 100 µM (inactive) | – | > 100 µM (inactive) | – | – | > 100 µM (inactive) | > 100 µM (inactive) | – | – |
| CC(=O)ON(C(C)=O)C1C(COC(c2ccccc2)(c2ccccc2)c2ccccc2)OC2OC3(CCCC3)OC21 (configuration not stated) | 5.32 µM (inactive) | 5.5 µM (inactive) | 3.57 µM (inactive) | 49.3 µM (inactive) | 5.19 µM (inactive) | – | – | 5.19 µM (inactive) | – |
| CCOC(C[C@H](O)[C@H]1COC(=S)S1)OCC | – | > 100 µM (inactive) | > 100 µM (inactive) | – | > 100 µM (inactive) | > 100 µM (inactive) | – | > 100 µM (inactive) | – |
| O=C(c1ccccc1)[C@H]1Nc2ccc(Cl)cc2C2c3ccccc3CC21 (some centres not stated) | > 100 µM (inactive) | 69.3 µM (inactive) | 66.8 µM (inactive) | – | > 100 µM (inactive) | 27.8 µM (inactive) | > 100 µM (inactive) | 21.5 µM (inactive) | 27.8 µM (inactive) |
| COc1ccc(C)cc(O)c1=O | 35.1 µM (inactive) | 14 µM (inactive) | 44.7 µM (inactive) | 40.9 µM (inactive) | 40.2 µM (inactive) | 16.2 µM (inactive) | > 100 µM (inactive) | – | – |
| N#Cc1ccc(/C=N\N2C(=O)c3ccccc3C2=O)cc1 | > 100 µM (inactive) | > 100 µM (inactive) | > 100 µM (inactive) | > 100 µM (inactive) | > 100 µM (inactive) | > 100 µM (inactive) | > 100 µM (inactive) | > 100 µM (inactive) | – |
| CCCn1c(SCCSc2c3ccccc3c(-c3nc(F)nc(F)n3)n2CCC)c2ccccc2c1-c1nc(F)nc(F)n1 | 20.5 µM (inactive) | – | > 100 µM (inactive) | > 100 µM (inactive) | 91.6 µM (inactive) | 88.9 µM (inactive) | > 100 µM (inactive) | – | – |
| N#Cc1ccc(Sc2ccccc2)cc1C#N | 34 µM (inactive) | – | 19.1 µM (inactive) | 50.6 µM (inactive) | 75.3 µM (inactive) | 59.7 µM (inactive) | – | 23.1 µM (inactive) | 30.9 µM (inactive) |
| O=C1C=C(Nc2ccccc2C(=O)CC(=O)C(=O)Nc2ccc(Cl)cc2)c2ccccc2C1=O | 5.56 µM (inactive) | 3.64 µM (inactive) | 13.8 µM (inactive) | 0.594 µM (active) | > 55.2 µM (inactive) | 7.52 µM (inactive) | 6.37 µM (inactive) | 13.7 µM (inactive) | 30 µM (inactive) |
| COc1cc2ccnc3c(=C(SC)SC)c(=O)c(c1OC)c23 | 13.9 µM (inactive) | 17.3 µM (inactive) | 13.8 µM (inactive) | 13.3 µM (inactive) | 15.7 µM (inactive) | 4.65 µM (inactive) | – | – | 14.8 µM (inactive) |
| COc1cc(=O)oc(/C=C/CO)c1C | > 100 µM (inactive) | > 100 µM (inactive) | > 100 µM (inactive) | > 100 µM (inactive) | > 100 µM (inactive) | > 100 µM (inactive) | – | > 100 µM (inactive) | > 100 µM (inactive) |
| O=C1OC(CC(=O)c2ccc(Cl)cc2Cl)C(Cl)=C1Cl (configuration not stated) | 22.4 µM (inactive) | 18.4 µM (inactive) | 39 µM (inactive) | > 100 µM (inactive) | 21.1 µM (inactive) | 17.1 µM (inactive) | 33.1 µM (inactive) | 21.3 µM (inactive) | 31.1 µM (inactive) |
| CN1C/C(=C\c2ccco2)c2nc(N)nc(-c3ccco3)c2C1 | > 100 µM (inactive) | > 100 µM (inactive) | 88.1 µM (inactive) | – | > 100 µM (inactive) | 74.1 µM (inactive) | – | 23.6 µM (inactive) | – |
| C1=CC=C2NCCCCCC/N=C3\C=CC=CC=C3NCCc3cccc(c3)CC/N=C/2C=C1 | 36.6 µM (inactive) | 13.3 µM (inactive) | 10.2 µM (inactive) | – | 4.81 µM (inactive) | 10.7 µM (inactive) | > 100 µM (inactive) | – | 11.2 µM (inactive) |
| COc1ccc2nc3cc(Cl)ccc3c(Sc3ccccc3[N+](=O)[O-])c2c1 | > 100 µM (inactive) | > 100 µM (inactive) | > 100 µM (inactive) | > 100 µM (inactive) | > 100 µM (inactive) | > 100 µM (inactive) | 41.2 µM (inactive) | 29.4 µM (inactive) | 43.9 µM (inactive) |
| CCOC(=O)Oc1cc2c(c(OC)c1OC)-c1ccc(OC)c(=O)cc1C(NC(C)=O)CC2 (configuration not stated) | – | 0.0137 µM (active) | < 0.01 µM (active) | – | 0.0416 µM (active) | < 0.0162 µM (active) | 0.0156 µM (active) | 0.0432 µM (active) | 0.0565 µM (active) |
| C[C@]12C=CC(=O)C=C1CC[C@@H]1[C@@H]2CC[C@]2(C)OC(=O)CC[C@@H]12 [TESTOLACTONE] | > 500 µM (inactive) | 376 µM (inactive) | > 490 µM (inactive) | 98.4 µM (inactive) | 456 µM (inactive) | > 500 µM (inactive) | 460 µM (inactive) | 245 µM (inactive) | > 472 µM (inactive) |
